# Assay results as given in publication PMC10288869, “Release of an encrypted, highly potent ACE-inhibitory peptide by enzymatic hydrolysis of moth bean (Vigna aconitifolia) protein” (Frontiers in Nutrition, 2023).
# Marks after values point to notes of the source that are not given here. No end group written: not given here.
# How the values were obtained:
# [1] = biological target: T1, Angiotensin-converting enzyme (ACE) (Sus scrofa, UniProt F1RRW5); experiment: ACE inhibition activity determination (HHL substrate, colorimetric); type: biochemical, pig; conditions: for ACE inhibition % (before GI digestion): sample 0.1 mg of peptides/ml, 5 mM HHL, pH 8.3, 37°C, 30 min, absorbance 410 nm, mean ± SD, n = 3
# T1 construct: Angiotensin-converting enzyme (ACE) was extracted and purified from pig lung tissues; from tissue; host or cells: pig lung
# T1 sequence (F1RRW5 34-1309): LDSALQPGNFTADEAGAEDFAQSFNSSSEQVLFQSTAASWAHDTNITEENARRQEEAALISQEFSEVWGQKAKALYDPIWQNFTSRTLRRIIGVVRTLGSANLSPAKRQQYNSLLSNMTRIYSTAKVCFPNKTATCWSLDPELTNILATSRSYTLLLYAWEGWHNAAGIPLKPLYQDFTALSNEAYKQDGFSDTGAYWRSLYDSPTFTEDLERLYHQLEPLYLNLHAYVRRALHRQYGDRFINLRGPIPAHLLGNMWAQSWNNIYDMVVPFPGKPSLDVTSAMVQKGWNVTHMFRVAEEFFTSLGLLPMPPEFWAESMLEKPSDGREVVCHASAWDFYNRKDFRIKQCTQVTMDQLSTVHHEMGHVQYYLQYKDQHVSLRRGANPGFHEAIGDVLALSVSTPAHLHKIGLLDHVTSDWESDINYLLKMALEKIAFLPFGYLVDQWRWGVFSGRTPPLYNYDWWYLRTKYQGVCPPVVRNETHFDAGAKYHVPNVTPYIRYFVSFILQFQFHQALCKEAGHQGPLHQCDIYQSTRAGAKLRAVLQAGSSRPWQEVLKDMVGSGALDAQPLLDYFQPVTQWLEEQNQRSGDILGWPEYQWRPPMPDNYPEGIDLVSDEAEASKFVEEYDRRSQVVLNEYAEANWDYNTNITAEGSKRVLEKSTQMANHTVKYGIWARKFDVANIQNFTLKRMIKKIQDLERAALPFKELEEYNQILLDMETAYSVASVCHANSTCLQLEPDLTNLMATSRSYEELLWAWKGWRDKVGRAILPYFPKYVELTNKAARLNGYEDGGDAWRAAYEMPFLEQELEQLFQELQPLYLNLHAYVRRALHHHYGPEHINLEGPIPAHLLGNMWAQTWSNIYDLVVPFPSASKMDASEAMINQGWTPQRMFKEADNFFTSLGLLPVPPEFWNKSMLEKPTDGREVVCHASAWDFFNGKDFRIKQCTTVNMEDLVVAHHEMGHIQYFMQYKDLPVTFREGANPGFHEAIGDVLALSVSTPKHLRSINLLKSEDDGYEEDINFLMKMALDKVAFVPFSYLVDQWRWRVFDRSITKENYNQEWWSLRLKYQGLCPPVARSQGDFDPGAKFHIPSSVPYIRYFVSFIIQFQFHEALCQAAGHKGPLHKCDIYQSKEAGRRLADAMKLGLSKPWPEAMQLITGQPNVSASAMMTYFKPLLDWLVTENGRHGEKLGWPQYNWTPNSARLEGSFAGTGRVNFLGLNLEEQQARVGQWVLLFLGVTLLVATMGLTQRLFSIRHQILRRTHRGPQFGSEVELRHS
# Description: Moth bean seeds (MBS-27 variety) were obtained from Mahatma Phule Krishi Vidyapeeth (MPKV), Rahuri, Maharashtra. Angiotensin-converting enzyme (ACE) was extracted and purified from pig lung tissues according to the protocol described by Abdulazeez Mansurah et al. ([19]). Pig lung tissues were brought from a local slaughterhouse (Deonar Abattoir, Mumbai). Pepsin (1,000 U/mg, from porcine), pancreatin 3x (3 NF/USP, from porcine pancreas), trypsin (>2,000 U/g, from bovine pancreas), and papain (from papaya latex) were purchased from HiMedia Laboratories Pvt. Ltd., Mumbai. HHL (N-Hippuryl- His- Leu hydrate) and captopril were purchased from Sigma–Aldrich Chemicals Private Limited, Bangalore, India. All the chemicals used were of analytical grade.
# (§1) Angiotensin-converting enzyme (ACE) inhibition activity was performed according to Jimsheena et al. ([23]), with minor modifications. In brief, 10 μl (0.1 mg of peptides/ml) of the sample was first incubated with 10 μl of ACE at 37°C for 5 min. Later, 30 μl of 50 mM phosphate buffer (pH 8.3) containing 150 mM NaCl and 50 μl of 5 mM HHL was added and mixed completely. The reaction mixture was kept for incubation in a water bath at 37°C for 30 min. The reaction was terminated by adding 100 μl of 1 M HCl. Subsequently, 200 μl of pyridine and 100 μl of benzene sulfonyl chloride (BSC) were added sequentially to the solution and vortexed for 10 s. The reaction mixture was, then, cooled on ice, and the absorbance was measured at 410 nm using a spectrophotometer. Captopril was used as a reference for comparison. ACE inhibition activity (%) was calculated as follows:
# ACE inhibition % = (1− As/Ac) x 100
# where As is the absorbance of the mixture containing the sample, and Ac is the absorbance of the mixture without inhibitor at 410 nm. IC50 values were determined for each fraction using a plot of ACE activity vs. inhibitor concentration.
# [2] = biological target: T1, Angiotensin-converting enzyme (ACE); experiment: Gastrointestinal digestion simulation (SGF, SIF) followed by ACE inhibition assay; type: in vitro ADME, pig; parameters: increase in ACE inhibitory activity after intestinal digestion simulation / increase in ACE inhibitory activity due to cleavage by pepsin / ACE inhibitory activity decreased to (% of initial) following intestinal digestion simulation: concentration or dose not given beside the values; conditions: for ACE inhibition (%) after SGF: after gastric phase: simulated gastric fluid, pepsin 2,000U/ml, pH 2.5, 2 h; for ACE inhibition (%) after SGF / ACE inhibition (%) After SIF: 37°C, read-out ACE inhibition, mean ± SD, n = 3; for ACE inhibition (%) After SIF: after intestinal phase: simulated intestinal fluid, pancreatin 100U/ml, bile juice, pH 8, 2 h, following gastric phase; for increase in ACE inhibitory activity due to cleavage by pepsin: after gastric phase
# Method: as §1, with “follows: […]” for “follows:”
# The peptides synthesized were subjected to GI digestion simulation, as per the procedure described by Minekus et al. ([24]), with minor modifications. Bile juice was prepared according to Versantvoort et al. ([25]). Three steps of digestion (the mouth, stomach, and small intestine) were simulated, and the fluid was prepared to mimic physiological conditions. The composition of the simulated fluid is presented in Supplementary Table S2. The pH of the solution was adjusted by using 5 N NaOH and 6 N HCl. The digestion process was carried out using a stirring water bath at 37°C. Sampling was carried out after each step of digestion, and % ACE inhibition and degree of hydrolysis were calculated. Enzymes were inactivated by heating the fraction at 90°C for 10 min., followed by centrifugation at 10,000 g at 4°C for 15 min. The supernatant obtained was stored at −20°C for later study.
# [3] = biological target: T1, Angiotensin-converting enzyme (ACE); experiment: ACE inhibition kinetics (Lineweaver-Burk plot, Dixon plot); type: biochemical, pig; conditions: HHL 1 to 7.5 mM, peptide 5 and 10 μM
# Method: The mechanism of ACE inhibition by a peptide showing the lowest IC50 value was identified by the rate of HHL hydrolysis measured over a range of concentrations (1 to 7.5 mM) by varying concentrations of inhibitory peptide (5 and 10 μM). The analysis was carried out by using a double reciprocal Lineweaver–Burk plot, to determine the mode of ACE inhibition, Michaelis–Menten constant (Km), and the maximum velocity (Vmax). The inhibitor constant (Ki) was determined by the Dixon plot.
# [4] = relative to activity before GI digestion
ACE inhibition % (before GI digestion) ([1]; synthesized peptide),ACE inhibition (%) after SGF [2],ACE inhibition (%) After SIF [2],Substance,further results
41.9 ± 6.9^d %,74.3 ± 2.2^b %,17.9 ± 1.8^g %,TFAPGF [pp-45],"increase in ACE inhibitory activity due to cleavage by pepsin [2, 4]: 77%"
34.3 ± 7.7^e %,31.1 ± 0.7^e %,6.2 ± 4.3^j %,HPGDDKS [pp-30],"ACE inhibitory activity decreased to (% of initial) following intestinal digestion simulation [2, 4]: 18%"
6.4 ± 1.0^j %,21.5 ± 3.4^g %,18.8 ± 9.9^g %,LTAEHPVV [pp-44],"increase in ACE inhibitory activity due to cleavage by pepsin [2, 4]: 236%"
23.6 ± 6.9^g %,21.1 ± 0.8^g %,19.0 ± 1.8^g %,ISGGSSR [pp-39],
13.1 ± 4.7^h %,15.1 ± 0.6^h %,15.6 ± 1.9^h %,ATDETGSK [pp-33],

# Continued, substance first:
Substance,ACE inhibition % (before GI digestion) ([1]; synthesized peptide),ACE inhibition (%) after SGF [2],ACE inhibition (%) After SIF [2],further results
VEPLPPR [pp-15],55.9 ± 1.3^c %,51.0 ± 3.4^c %,52.3 ± 3.8^c %,
HVDSGK [pp-18],8.2 ± 4.3^i %,9.6 ± 0.5^i %,15.3 ± 3.6^h %,"increase in ACE inhibitory activity after intestinal digestion simulation [2, 4]: 86%"
IEPLPPR [pp-16],36.0 ± 1.9^e %,30.0 ± 0.4^f %,33.6 ± 3.2^f %,
FPPPKVIQ [pp-28],93.4 ± 1.7^a %,90.5 ± 4.6^a %,59.6 ± 0.3^b %,"IC50 ([1]; purification steps of ACE-inhibitory peptide, read-out: IC50 (μg/ml) (converted)): 0.216 µM; IC50 ([1]; synthesized peptide, before GI digestion, read-out: IC50 of ACE inhibition): 0.24 µM; IC50 ([2]; after GI digestion simulation (digestion by trypsin in intestinal phase)): 20 µM; ACE inhibition (%) After SIF ([2]; listed as FPPPKVIQ): ~ 59%; Ki [3]: 0.81 µM"
TGDTGRQH [pp-4],16.5 ± 2.1^g %,18.0 ± 2.9^g %,33.6 ± 1.2^f %,"increase in ACE inhibitory activity after intestinal digestion simulation [2, 4]: 103%"
TGDTGR [pp-6],3.9 ± 5.5^k %,3.9 ± 1.3^k %,4.2 ± 1.3^k %,
HDTGRQH [pp-8],12.1 ±5.5^i %,11.8 ± 1.3^i %,21.3 ± 0.3^g %,
GDTGRQQ [pp-1],21.8 ±2.3^g %,24.0 ± 5.7^g %,7.6 ± 1.2^j %,"ACE inhibitory activity decreased to (% of initial) following intestinal digestion simulation [2, 4]: 35%"
AENNQR [pp-25],11.8 ± 2.9^i %,9.8 ± 2.8^i %,14.5 ± 0.5^h %,
NNPHR [pp-24],47.1 ±6.7^d %,41.4 ± 2.2^d %,15.0 ± 0.6^h %,"reduction in ACE inhibitory activity after intestinal digestion simulation [2, 4]: 68%"
